Results as given in ChEMBL document CHEMBL1144756, “Isoprenoid glycosides from Liriosma ovata” (2008).
Values after ≈ are worked out from the molar mass of the structure shown.

Assays:
Type in all cases: functional
Pseudomonas aeruginosa = assay: Antibacterial activity against Pseudomonas aeruginosa ATCC 9027 after 24 hrs by broth microdilution method; conditions: ATCC 9027, 24 h
Staphylococcus aureus = assay: Antibacterial activity against Staphylococcus aureus ATCC 6538 after 24 hrs by broth microdilution method; conditions: ATCC 6538, 24 h
Mus musculus = assay: Antiinflammatory activity against corton oil-induced ear edema in mouse

Compound	MIC (Pseudomonas aeruginosa)	MIC (Staphylococcus aureus)	MBC (Pseudomonas aeruginosa)	MBC (Staphylococcus aureus)	ID50 (Mus musculus)
CC(=O)/C=C/[C@@]1(O)[C@H](C)C[C@H](O[C@@H]2O[C@H](CO[C@@H]3OC[C@](O)(CO)[C@H]3O)[C@@H](O)[C@H](O)[C@H]2O)CC1(C)C	> 20 µg/mL	4 µg/mL (≈ 7.68 µM)	–	–	–
CC(C)O[C@@H]1O[C@H](CO[C@@H]2OC[C@](O)(CO)[C@H]2O)[C@@H](O)[C@H](O)[C@H]1O	> 20 µg/mL	> 20 µg/mL	–	–	–
CC(C)(O)[C@@H]1CC[C@]2(C)[C@@H](O[C@@H]3O[C@H](CO)[C@@H](O)[C@H](O)[C@H]3O)C[C@@H](O)[C@](C)(O)[C@H]2C1	4 µg/mL (≈ 9.21 µM)	2 µg/mL (≈ 4.6 µM)	4 µg/mL (≈ 9.21 µM)	4 µg/mL (≈ 9.21 µM)	–
COc1ccc2c(c1)c(CC(=O)O)c(C)n2C(=O)c1ccc(Cl)cc1 [INDOMETHACIN]	–	–	–	–	93 microg/cm2
